Where “and” joins values, the source holds several entries; their conditions need not be identical. Identical values can stand only once. Like-named read-outs stand apart in the source and are kept apart here.
Experiment: Pharmacokinetics and oral bioavailability of D8.3.p1 and D10.1 in Balb/C female mice (PO, SQ, IV)
Format: in vivo
Procedure: In vivo bioavailability assays were conducted in mice and rats. D8.3.p1 and D10.1 were studied in female Balb/C mice by van Voorhis group at University of Washington. D11.2 was evaluated in Sprague Dawley (SD) rats by Robert Griffin’s group at Takeda Pharmaceuticals. D11.3 was studied in the male swiss albino mice by the contract research organization, GVK Biosciences Pvt. Ltd., Hyderabad, India. All animals used in these studies were handled in strict accordance with practices made to minimize suffering. All animal experiments conducted at the University of Washington, USA, and Takeda Pharmaceuticals, USA were approved by the Institutional Animal Care and Use Committee. Animal studies at GVK Biosciences were reviewed and approved by the Institutional Animal Ethics Committee of GVK Biosciences. We selected four designed macrocycles with diverse structures and in vitro rates of permeability for in vivo oral bioavailability studies in the rodent models. Due to the intensive resource requirements for such studies, these studies were conducted by three different research groups. D8.3.p1 and D10.1 were studied in female Balb/C mice by van Voorhis group at University of Washington. D11.2 was evaluated in Sprague Dawley (SD) rats by Robert Griffin’s group at Takeda Pharmaceuticals. D11.3 was studied in the male swiss albino mice by the contract research organization, GVK Biosciences Pvt. Ltd., Hyderabad, India. […] Blood samples were collected at multiple time points and plasma was separated from whole blood using centrifugation and stored at -80°C. […] Samples were mixed, centrifuged, and supernatant harvested for LC-MS analysis. For RP-HPLC analysis, peptides were evaluated using Agilent ZORBAX Eclipse Plus C18 1.8 μm, 2.1 mm x 50 mm and Waters Xevo TQ-S micro Triple Quadrupole/ACQUITY UPLC H-Class. […] Pharmacokinetic parameters were modeled using the Phoenix WinNonlin software package. […]

[1] = D10.1 PO 12.2 mg/kg, individual mice M1, M2, M3, 12.2 mg/kg
[2] = D10.1 PO 12.2 mg/kg, mean n=3, 12.2 mg/kg
[3] = D10.1 SQ 12.2 mg/kg, individual mice M1, M2, M3
[4] = D10.1 SQ 12.2 mg/kg, individual mice M2, M3 (M1 NA)

With CC[C@H](C)[C@@H]1NC(=O)[C@@H](CC(C)C)NC(=O)[C@H](CC(C)C)N(C)C(=O)[C@H](Cc2ccccc2)NC(=O)CN(C)C(=O)[C@@H]2CCCN2C(=O)[C@H](C(C)C)NC(=O)[C@H](Cc2ccccc2)N(C)C(=O)[C@H]2CCCN2C(=O)[C@H](CC(C)C)NC1=O [Design D10.1, DLEU ILE LEU DPRO *PHE VAL PRO *GLY PHE *LEU] the Plasma level (D10.1 PO 12.2 mg/kg, 15 min, individual mice M1, M2, M3, 12.2 mg/kg) was 2260 nM, the Plasma level (D10.1 PO 12.2 mg/kg, 15 min, mean n=3, 12.2 mg/kg) was 2580 nM and the Plasma level (D10.1 PO 12.2 mg/kg, 30 min, individual mice M1, M2, M3, 12.2 mg/kg) was 2490 nM and 3640 nM and 2640 nM. For the same compound, the Plasma level (D10.1 PO 12.2 mg/kg, 30 min, mean n=3, 12.2 mg/kg) was 2920 nM, the Plasma level (D10.1 PO 12.2 mg/kg, 60 min, individual mice M1, M2, M3, 12.2 mg/kg) was 2140 nM and 1640 nM and 1570 nM and the Plasma level (D10.1 PO 12.2 mg/kg, 60 min, mean n=3, 12.2 mg/kg) was 1780 nM. For the same compound, the Plasma level (D10.1 PO 12.2 mg/kg, 120 min, mean n=3, 12.2 mg/kg) was 720 nM, the Plasma level (D10.1 PO 12.2 mg/kg, 240 min, mean n=3, 12.2 mg/kg) was 160 nM and the Plasma level (D10.1 PO 12.2 mg/kg, 360 min, individual mice M1, M2, M3, 12.2 mg/kg) was 0 nM and 100 nM. The Plasma level (D10.1 PO 12.2 mg/kg, 360 min, mean n=3, 12.2 mg/kg) was 70 nM, the Plasma level (D10.1 PO 12.2 mg/kg, 1440 min, individual mice M1, M2, M3) was 0 nM and the Plasma level (D10.1 PO 12.2 mg/kg, 1440 min, mean n=3) was 0 nM. The Tmax (D10.1 PO 12.2 mg/kg, individual mice M1, M2, M3) was 0.5 h, the “AUC0-∞” value [1] was 226.62 µmol·min/L and 337.03 µmol·min/L and 276.18 µmol·min/L and the AUC(0-t) [1] was 216.96 µmol·min/L and 327.78 µmol·min/L and 266.45 µmol·min/L. For the same compound, the Cl/F [1] was 0.000944 L/min and 0.000635 L/min and 0.000775 L/min, the T1/2 [1] was 1.051 h and 1.132 h and the Cmax (D10.1 PO 12.2 mg/kg, individual mice M1, M2, M3, 12.2 mg/kg, read-out: Cmax) was 3640 nM and 2640 nM. For the same compound, the “AUC0-∞” value [2] was 279.94 µmol·min/L, the AUC(0-t) [2] was 270.4 µmol·min/L and the Plasma level (D10.1 SQ 12.2 mg/kg, 15 min, mean n=3) was 2530 nM. The Plasma level (D10.1 SQ 12.2 mg/kg, 30 min, individual mice M1, M2, M3) was 1810 nM and 3690 nM and 5150 nM, the Plasma level (D10.1 SQ 12.2 mg/kg, 30 min, mean n=3) was 3550 nM and the Plasma level (D10.1 SQ 12.2 mg/kg, 60 min, individual mice M1, M2, M3) was 1870 nM and 4880 nM and 5030 nM. It also gave a Plasma level (D10.1 SQ 12.2 mg/kg, 60 min, mean n=3) of 3930 nM, a Plasma level (D10.1 SQ 12.2 mg/kg, 360 min, mean) of 2290 nM and a Plasma level (D10.1 SQ 12.2 mg/kg, 1440 min, individual mice M1, M2, M3) of 0 nM. For the same compound, the Plasma level (D10.1 SQ 12.2 mg/kg, 1440 min, mean n=3) was 10 nM, the AUC(0-t) [3] was 730.93 µmol·min/L and 3578.6 µmol·min/L and 1329.09 µmol·min/L and the Tmax [3] was 6 h and 1 h. The Cmax (D10.1 SQ 12.2 mg/kg, individual mice M1, M2, M3, read-out: Cmax) was 2400 nM and 4880 nM and 5150 nM, the “AUC0-∞” value [4] was 3585.94 µmol·min/L and 2148.41 µmol·min/L and the Cl/F [4] was 5.97e-05 L/min and 9.96e-05 L/min. The T1/2 [4] was 4.3302 h, the “AUC0-∞” value (D10.1 SQ 12.2 mg/kg, mean) was 2867.17 µmol·min/L and the “Half-life T1/2” value (D10.1 SQ 12.2 mg/kg, mean) was 3.7563 ± 0.8117 h. The AUC(0-t) (D10.1 SQ 12.2 mg/kg, mean n=3) was 1879.54 µmol·min/L, the clearance (female, Balb/C, mouse, plasma, iv, […], D10.1 IV […], individual mice M1, M2, M3, read-out: CLP) was 3.46 mL/min/kg and the half-life (female, Balb/C, mouse, plasma, iv, […], D10.1 IV […], individual mice M1, M2, M3, read-out: T1/2) was 1.21 h. It also gave a Vd (female, Balb/C, mouse, plasma, iv, […], D10.1 IV […], individual mice M1, M2, M3, read-out: VSS) of 0.32 L/kg, a Vd (female, Balb/C, mouse, plasma, iv, […], D10.1 IV […], individual mice M1, M2, M3, read-out: VZ) of 0.36 L/kg and a half-life (female, Balb/C, mouse, plasma, iv, […], D10.1 IV […], mean n=3, read-out: Half-life T1/2) of 1.12 ± 0.113 h. The clearance (female, Balb/C, mouse, plasma, iv, […], D10.1 IV […], mean n=3, read-out: Plasma clearance CLP) was 3.26 ± 0.37 mL/min/kg, the Vd (female, Balb/C, mouse, plasma, iv, […], D10.1 IV […], mean n=3, read-out: Volume of distribution @ steady state VSS) was 0.25 ± 0.08 L/kg and the Vd (female, Balb/C, mouse, plasma, iv, […], D10.1 IV […], mean n=3, read-out: Volume of distribution during elimination phase VZ) was 0.32 ± 0.07 L/kg. For the same compound, the level at time molar at 0.25 h (female, Balb/C, mouse, plasma, po, 12.2 mg/kg, D10.1 PO 12.2 mg/kg, 15 min, individual mice M1, M2, M3, read-out: Plasma level) was 2220 nM, the level at time molar at 2 h (female, Balb/C, mouse, plasma, po, 12.2 mg/kg, D10.1 PO 12.2 mg/kg, 120 min, individual mice M1, M2, M3, read-out: Plasma level) was 540 nM and the level at time molar at 4 h (female, Balb/C, mouse, plasma, po, 12.2 mg/kg, D10.1 PO 12.2 mg/kg, 240 min, individual mice M1, M2, M3) was 130 nM. The level at time molar at 6 h (female, Balb/C, mouse, plasma, po, 12.2 mg/kg, D10.1 PO 12.2 mg/kg, 360 min, individual mice M1, M2, M3, read-out: Plasma level) was 100 nM, the Cmax (female, Balb/C, mouse, plasma, po, 12.2 mg/kg, D10.1 PO 12.2 mg/kg, individual mice M1, M2, M3, read-out: Cmax) was 2490 nM and the half-life (female, Balb/C, mouse, plasma, po, 12.2 mg/kg, D10.1 PO 12.2 mg/kg, individual mice M1, M2, M3, read-out: T1/2) was 0.831 h. For the same compound, the Tmax (female, Balb/C, mouse, plasma, po, 12.2 mg/kg, D10.1 PO 12.2 mg/kg, individual mice M1, M2, M3, read-out: Tmax (converted)) was 0.5 h, the half-life (female, Balb/C, mouse, plasma, po, 12.2 mg/kg, D10.1 PO 12.2 mg/kg, mean n=3, read-out: Half-life T1/2) was 1 ± 0.156 h and the Cmax (female, Balb/C, mouse, plasma, po, 12.2 mg/kg, D10.1 PO 12.2 mg/kg, mean n=3, read-out: Max concentration Cmax) was 2920 ± 630 nM. The Tmax (female, Balb/C, mouse, plasma, po, 12.2 mg/kg, D10.1 PO 12.2 mg/kg, mean n=3, read-out: Time of max concentration Tmax (converted)) was 0.5 h, the bioavailability (female, Balb/C, mouse, plasma, po, 12.2 mg/kg, read-out: Oral bioavailability F) was 7.48 ± 1.79% and the level at time molar at 6 h (female, Balb/C, mouse, plasma, sc, 12.2 mg/kg, D10.1 SQ 12.2 mg/kg, 360 min, individual mice M1, M3 (M2 ND), read-out: Plasma level) was 2400 nM. The level at time molar at 24 h (female, Balb/C, mouse, plasma, sc, 12.2 mg/kg, D10.1 SQ 12.2 mg/kg, 1440 min, individual mice M1, M2, M3, read-out: Plasma level) was 30 nM, the AUC(0-inf) (female, Balb/C, mouse, plasma, sc, D10.1 SQ 12.2 mg/kg, mean) was 47.8 µM·h and the AUC(0-t) (female, Balb/C, mouse, plasma, sc, D10.1 SQ 12.2 mg/kg, mean n=3, read-out: AUC0-t (converted)) was 1880 µmol·min/L. It also gave a half-life (female, Balb/C, mouse, plasma, subcutaneous, 12.2 mg/kg, D10.1 SQ 12.2 mg/kg, individual mice M2, M3 (M1 NA), read-out: T1/2) of 3.18 h, an AUC(0-inf) (female, Balb/C, mouse, plasma, D10.1 PO 12.2 mg/kg, mean n=3) of 4.67 µM·h and an AUC(0-t) (female, Balb/C, mouse, plasma, D10.1 PO 12.2 mg/kg, mean n=3, read-out: AUC0-t (converted)) of 270 µmol·min/L. The CL/F (female, Balb/C, mouse, plasma, D10.1 PO 12.2 mg/kg, mean n=3, read-out: Apparent clearance Cl/F) was 0.785 mL/min and the half-life (mouse, in vivo, sc, 12.2 mg/kg, D10.1 after SQ administration, read-out: plasma half-life T1/2 (converted)) was 3.75 h.

Reference: article PMC9490236, “Accurate de novo design of membrane-traversing macrocycles” (Cell, 2022)
